Assay results published in PubChem BioAssay AID1259411 (Chemical Carcinogenesis Research Information System (CCRIS), 2018).
Calls of active or inactive are those of the source. No rule for the calls is given here.

System: rodent carcinogenicity bioassays, tumor incidence
Assay: CCRIS carcinogenicity studies
Procedure, shortened: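 NCI-built, expert-reviewed records of carcinogenicity and related test outcomes (mutagenicity, tumor promotion/inhibition) compiled from published and report sources, historical span 1985-2011, not updated.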

For `Cc1ccc2c(c1[N+](=O)[O-])C(=O)c1ccccc1C2=O`, the carcinogen call (Species: MOUSE, Strain/Sex: B6C3F1/FEMALE, Route: ORAL, Dose: 0, 0.03, 0.06% IN DIET, Dose: 0, 0.03, 0.06% IN DIET, Tumor Site: Type of Lesion: LIVER: HEMANGIOSARCOMA) was “active; positive”, the carcinogen call (Species: MOUSE, Strain/Sex: B6C3F1/MALE, Route: ORAL, Dose: 0, 0.03, 0.06% IN DIET, Dose: 0, 0.03, 0.06% IN DIET, Tumor Site: Type of Lesion: LIVER: HEMANGIOSARCOMA) was “active; positive” and the carcinogen call (Species: RAT, Strain/Sex: F344/MALE, Route: ORAL, Dose: 0, 0.12, 0.06% IN DIET, Dose: 0, 0.12, 0.06% IN DIET, Tumor Site: Type of Lesion: LIVER: HEPATOCELLULAR CARCINOMA OR NEOPLASTIC NODULE, INTEGUMENTARY SYSTEM (SUBCUTANEOUS TISSUE): FIBROMA) was “active; positive”.
For `[Be+2]`, the carcinogen call (Species: RAT, Strain/Sex: WISTAR/FEMALE, Route: INTRATRACHEAL, Dose: 50 UG THEN 25 UG AFTER 10 MO, Tumor Site: Type of Lesion: LUNG: ADENOMA, ADENOCARCINOMA, ALVEOLAR/BRONCHIOLAR TUMOR) was “active; positive”.
In the case of `COc1ccc2c3c(cccc13)OC([N+](=O)[O-])=C2`, the carcinogen call (Species: RAT, Strain/Sex: WISTAR/MALE, Route: SUBCUTANEOUS, Dose: 0, 0.5 MG IN DMSO 1/WK FOR DURATION OF STUDY (TOTAL DOSE: 0; 10.23 MG) (STUDY DURATION: 156 D), Dose: 0, 0.5 MG IN DMSO 1/WK FOR DURATION OF STUDY (TOTAL DOSE: 0; 10.23 MG) (STUDY DURATION: 156 D), Tumor Site: Type of Lesion: INJECTION SITE: FIBROSARCOMA) is reported as “active; positive”.
For `C[C@]12CC[C@@H]3c4ccc(OC(=O)c5ccccc5)cc4CC[C@H]3[C@@H]1CC[C@@H]2O`, the carcinogen call (Species: MOUSE, Route: SUBCUTANEOUS, Tumor Site: Type of Lesion: TESTES, PITUITARY GLAND, CERVIX, UTERUS, Tumor Site: Type of Lesion: TESTES, PITUITARY GLAND, CERVIX, UTERUS) was “active; positive” and the carcinogen call (Species: RAT, Route: SUBCUTANEOUS IMPLANT, Tumor Site: Type of Lesion: PITUITARY GLAND) was “active; positive”.
For `O`, the carcinogen call (Species: MOUSE, Strain/Sex: B6C3F1/FEMALE, Route: ORAL, Dose: 0, 0.5, 2% IN DIET FOR 96 WK FOLLOWED BY CONTROL DIET FOR 8 WK (STUDY DURATION: 104 WK), Dose: 0, 0.5, 2% IN DIET FOR 96 WK FOLLOWED BY CONTROL DIET FOR 8 WK (STUDY DURATION: 104 WK)) was “inactive; negative”, the carcinogen call (Species: MOUSE, Strain/Sex: B6C3F1/FEMALE, Route: ORAL, Dose: 0, 500, 1250, 2500 PPM IN DRINKING WATER (APPROXIMATELY 0; 40; 90; 200 MG/KG BW) FOR 104 WK (STUDY DURATION: 105 WK), Dose: 0, 500, 1250, 2500 PPM IN DRINKING WATER (APPROXIMATELY 0; 40; 90; 200 MG/KG BW) FOR 104 WK (STUDY DURATION: 105 WK)) was “inactive; negative” and the carcinogen call (Species: MOUSE, Strain/Sex: B6C3F1/MALE, Route: ORAL, Dose: 0, 0.5, 2% IN DIET FOR 96 WK FOLLOWED BY CONTROL DIET FOR 8 WK (STUDY DURATION: 104 WK), Dose: 0, 0.5, 2% IN DIET FOR 96 WK FOLLOWED BY CONTROL DIET FOR 8 WK (STUDY DURATION: 104 WK)) was “inactive; negative”. The carcinogen call (Species: MOUSE, Strain/Sex: B6C3F1/MALE, Route: ORAL, Dose: 0, 500, 1250, 2500 PPM IN DRINKING WATER (APPROXIMATELY 0; 30; 75; 160 MG/KG BW) FOR 103 WK (STUDY DURATION: 103 WK), Dose: 0, 500, 1250, 2500 PPM IN DRINKING WATER (APPROXIMATELY 0; 30; 75; 160 MG/KG BW) FOR 103 WK (STUDY DURATION: 103 WK)) was “inactive; negative”, the carcinogen call (Species: RAT, Strain/Sex: F344/FEMALE, Route: ORAL, Dose: 0, 500, 1250, 2500 PPM IN DRINKING WATER (APPROXIMATELY 0; 15; 45; 75 MG/KG BW) FOR 105 WK (STUDY DURATION: 106 WK), Dose: 0, 500, 1250, 2500 PPM IN DRINKING WATER (APPROXIMATELY 0; 15; 45; 75 MG/KG BW) FOR 105 WK (STUDY DURATION: 106 WK)) was “inactive; negative” and the carcinogen call (Species: RAT, Strain/Sex: F344/MALE, Route: ORAL, Dose: 0, 500, 1250, 2500 PPM IN DRINKING WATER (APPROXIMATELY 0; 15; 30; 60 MG/KG BW) FOR 104 WK (STUDY DURATION: 105 WK), Dose: 0, 500, 1250, 2500 PPM IN DRINKING WATER (APPROXIMATELY 0; 15; 30; 60 MG/KG BW) FOR 104 WK (STUDY DURATION: 105 WK)) was “inactive; negative”. For the same molecule, the carcinogen call (Species: RAT, Strain/Sex: WISTAR/MALE, Route: INHALATION, Dose: 0, 10 MG/M3 OF RESPIRABLE DUST 7 HR/D 5 D/WK FOR 224 DAYS DURING A PERIOD OF 12 MO (STUDY DURATION: 29 MO), Tumor Site: Type of Lesion: LUNG: ADENOMA OR CARCINOMA) was “active; positive” and the carcinogen call (Species: RAT, Strain/Sex: WISTAR/MALE, Route: INTRAPERITONEAL, Dose: 0, 25 MG OF DUST SUSPENDED IN 2 ML PHOSPHATE BUFFERED SALINE (STUDY DURATION: >418 D), Tumor Site: Type of Lesion: LUNG: MESOTHELIOMA) was “active; positive”.
`CCC1c2ccc(O)cc2C(C)C1c1ccc(O)cc1` (centres undefined) was tested, and the carcinogen call (Species: HAMSTER, Strain/Sex: SYRIAN/MALE, Route: SUBCUTANEOUS IMPLANT, Dose: 0, 20 MG IN PELLETS IMPLANTED EVERY 2.5 MO FOR 9 MO (STUDY DURATION: 9 MO)) was “inactive; negative”.
With `ClCOCc1ccc(COCCl)cc1` the carcinogen call (Species: MOUSE, Strain/Sex: ICR/HA SWISS/FEMALE, Route: DERMAL, Dose: 0, 0.3 MG IN 0.1 ML CYCLOHEXANE 3/WK FOR 502 D (STUDY DURATION: 570 D), Tumor Site: Type of Lesion: SKIN: PAPILLOMA, SKIN: CARCINOMA) was “active; positive” and the carcinogen call (Species: MOUSE, Strain/Sex: ICR/HA SWISS/FEMALE, Route: SUBCUTANEOUS, Dose: 0, 0.3 MG IN 0.05 ML TRICAPRYLIN 1/WK FOR 569 D (STUDY DURATION: 570 D), Tumor Site: Type of Lesion: INJECTION SITE: SARCOMA) was “active; positive”.
With `CC[C@H]1CCC[C@H](O[C@H]2CC[C@H](N(C)C)[C@@H](C)O2)[C@@H](C)C(=O)C2=C[C@@H]3[C@@H](C=C[C@@H]4C[C@@H](O[C@@H]5O[C@@H](C)[C@H](OC)[C@@H](OC)[C@H]5OC)C[C@@H]34)[C@@H]2CC(=O)O1` the carcinogen call (Species: MOUSE, Strain/Sex: CD-1/FEMALE, Route: ORAL, Dose: 0, 0.0025, 0.008, 0.024, 0.0008% IN DIET FOR 18 MO (STUDY DURATION: 18 MO), Dose: 0, 0.0025, 0.008, 0.024, 0.0008% IN DIET FOR 18 MO (STUDY DURATION: 18 MO)) was “inactive; negative”, the carcinogen call (Species: MOUSE, Strain/Sex: CD-1/FEMALE, Route: ORAL, Dose: 0.0025, 0.008, 0.036 % IN DIET FOR 18 MO (STUDY DURATION: 18 MO), Dose: 0.0025, 0.008, 0.036 % IN DIET FOR 18 MO (STUDY DURATION: 18 MO)) was “inactive; negative” and the carcinogen call (Species: MOUSE, Strain/Sex: CD-1/MALE, Route: ORAL, Dose: 0, 0.0008, 0.0025, 0.008, 0.024, 0.036% IN DIET FOR 18 MO (STUDY DURATION: 18 MO), Dose: 0, 0.0008, 0.0025, 0.008, 0.024, 0.036% IN DIET FOR 18 MO (STUDY DURATION: 18 MO)) was “inactive; negative”. For the same molecule, the carcinogen call (Species: MOUSE, Strain/Sex: CD-1/MALE, Route: ORAL, Dose: 0.0025, 0.008, 0.036 % IN DIET FOR 18 MO (STUDY DURATION: 18 MO), Dose: 0.0025, 0.008, 0.036 % IN DIET FOR 18 MO (STUDY DURATION: 18 MO)) was “inactive; negative”, the carcinogen call (Species: RAT, Strain/Sex: F344/FEMALE, Route: ORAL, Dose: 0.005, 0.02, 0.05, 0.1% IN DIET FOR 24 MO (STUDY DURATION: 24 MO), Dose: 0.005, 0.02, 0.05, 0.1% IN DIET FOR 24 MO (STUDY DURATION: 24 MO)) was “inactive; negative” and the carcinogen call (Species: RAT, Strain/Sex: F344/MALE, Route: ORAL, Dose: 0.005, 0.02, 0.05, 0.1 % IN DIET FOR 24 MO (STUDY DURATION: 24 MO), Dose: 0.005, 0.02, 0.05, 0.1 % IN DIET FOR 24 MO (STUDY DURATION: 24 MO)) was “inactive; negative”.
